Reference: paper PMC5669199, “CM352 Reduces Brain Damage and Improves Functional Recovery in a Rat Model of Intracerebral Hemorrhage” (Journal of the American Heart Association: Cardiovascular …, 2017)

Experiments:
[1] = system: MMP‐10; design: method as in PMID 25686022; details: previously reported; read-out: MMP Inhibitory Activity (IC50), MMP‐10; cited from earlier work
[2] = target: T1, MMP‐12 (Homo sapiens, UniProt P39900); assay: MMP enzyme activity assay; type: biochemical; details: read-out: MMP Inhibitory Activity (IC50), MMP‐12
T1 construct: GenScript (contract testing)
Method: […]. Protease stock solutions (10 mmol/L) were diluted with assay buffer to make final test solutions containing no more than 2.0% DMSO. The samples were dispensed into plates; substrate was added and read with PHERAstar PLUS (BMG Labtech, Ortenberg, Germany) plate reader.

[3] = system: collagenase‐induced mouse model of ICH; design: method as in PMID 15800021; details: 100 mg/kg intraperitoneally for 48 hours (not with 1 mg/kg); cited from earlier work
[4] = target: T2, MMP‐7 (Homo sapiens, UniProt P09237); assay: MMP enzyme activity assay; type: biochemical
T2 construct: GenScript (contract testing)
T2 sequence (P09237 95-267): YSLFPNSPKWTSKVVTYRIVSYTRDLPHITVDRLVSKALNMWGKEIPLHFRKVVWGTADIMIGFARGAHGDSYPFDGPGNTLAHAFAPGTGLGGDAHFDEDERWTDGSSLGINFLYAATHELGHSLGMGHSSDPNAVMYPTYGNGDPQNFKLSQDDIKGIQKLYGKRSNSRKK
Method: Protease stock solutions (10 mmol/L) were diluted with assay buffer to make final test solutions containing no more than 2.0% DMSO. The samples were dispensed into plates; substrate was added and read with PHERAstar PLUS (BMG Labtech, Ortenberg, Germany) plate reader.

[5] = system: MMP‐3; design: method as in PMID 25686022; details: previously reported; read-out: MMP Inhibitory Activity (IC50), MMP‐3; cited from earlier work
[6] = system: mouse model of warfarin‐associated ICH; design: method as in PMID 21127298; details: cited from earlier work

T1 sequence (P39900 106-470, species assumed): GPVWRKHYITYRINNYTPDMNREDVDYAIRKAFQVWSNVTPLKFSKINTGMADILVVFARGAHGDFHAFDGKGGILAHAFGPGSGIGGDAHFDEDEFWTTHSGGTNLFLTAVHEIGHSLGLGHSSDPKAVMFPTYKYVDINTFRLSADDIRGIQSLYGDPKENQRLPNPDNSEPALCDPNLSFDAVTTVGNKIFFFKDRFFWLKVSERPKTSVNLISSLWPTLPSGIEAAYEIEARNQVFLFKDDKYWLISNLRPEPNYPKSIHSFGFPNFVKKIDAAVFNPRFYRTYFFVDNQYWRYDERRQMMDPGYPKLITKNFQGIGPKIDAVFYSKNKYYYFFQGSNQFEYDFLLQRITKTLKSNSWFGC

IC50 [2] | IC50 [4] | Structure (SMILES) | IC50 [1] | lesion volume and neurological outcome [3] | IC50 [5] | effect on edema [6]
0.0012 µM | 0.009 µM | CNC(=O)[C@H](Cc1c[nH]c2ccccc12)NC(=O)[C@@H](CC(=O)NO)CC(C)C [GM6001] | […] | decrease in lesion volume and improved neurological outcome | 0.0207 µM | 
 |  | NC[C@H]1CC[C@H](C(=O)O)CC1 [TXA, tranexamic acid] |  |  |  | exacerbates edema
